{
  "source": "patent US20230241257A1",
  "about": "“BIOTIN-MODIFIED DIMER AND USE THEREOF” (THE UNIVERSITY OF TOKYO, priority 2020, published 2023)",
  "type_in_all_cases": "in vivo, mice (BALB/cSlc nu/nu)",
  "key": {"[1]": {"tested_on": "human stomach cancer cells (MKN-45)", "assay": "Experiment 8: therapeutic effects and toxicity of Cupid-scFv antibody (24 h before)+^211At-psyche-BR in MKN-45 cancer-bearing mouse models", "conditions": "for general states and body weight: Day 5, urgent euthanasia", "description": "(§1) The present experiment used human stomach cancer cells (MKN-45) expressing carcinoembryonic antigen (CEA). 9-week-old male immunodeficient mice (BALB/cSlc nu/nu) were used. MKN-45 cells (5×10^6/0.1 ml) were transplanted into the mice's subcutis on the right shoulder dorsal side to produce cancer-bearing mouse models. At the time point in which the tumor volume became a predetermined size (on Day 8 after the transplantation), the mice were divided into seven groups, which were for use in the evaluation of the therapeutic effects, and a biodistribution group (6 hours) of cancer-bearing mouse models having this tumor size. The Cupid-scFv antibody was administered 100 μmol/0.1 ml via the caudal vein of each mouse. Twenty-four hours after administration of the Cupid-scFv antibody, ^211At-psyche-BR was administered via the caudal vein of each mouse in an amount of 5.55 MBq, 3.70 MBq, 1.85 MBq, 1.11 MBq, or 0.37 MBq.\nTo a control group, a solvent for the ^211At-psyche-BR was administered (solvent group). A group to which only cupid was administered was defined as a Cupid group. The mice's general states were observed and recorded immediately after administration of the ^211At-psyche-BR and at 3 hours after the administration. Moreover, until Day 14, after administration of the ^211At-psyche-BR, observation of the general states and the measurement of the body weight was carried out every day. After Day 14 of the administration of the ^211At-psyche-BR, observation of the general states and the measurement of the body weight was carried out every other day. The tumor size was measured every other day after the treatment with the ^211At-psyche-BR. On Day 36, after the treatment with the ^211At-psyche-BR, observation of the general states, the measurement of the body weight, and the measurement of the tumor size were carried out, and the mice were then euthanized by collecting whole blood from the heart of each mouse under isoflurane anesthesia. Tumor tissues and major tissues/organs were excised from the mice, weighed, and immobilized with formalin."}, "[2]": {"tested_on": "human stomach cancer cells (MKN-45)", "assay": "Experiment 11: pharmacokinetics (6 h) of Cupid-scFv antibody (24 h before)+^211At-psyche-B in MKN-45 cancer-bearing mouse models", "conditions": "six hours after administration, tumor on Day 8 after transplantation", "description": "The present experiment used human stomach cancer cells (MKN-45) expressing carcinoembryonic antigen (CEA). 9-week-old male immunodeficient mice (BALB/cSlc nu/nu) were used. MKN-45 cells (1×10^7/0.1 ml) were transplanted into the mice's subcutis on the right shoulder dorsal side to produce cancer-bearing mouse models. When the tumor volume became a predetermined size (on Day 8 after the transplantation), the Cupid-scFv antibody was administered 100 μmol/0.1 ml via the caudal vein of each mouse. Twenty-four hours after administration of the Cupid-scFv antibody, ^211At-psyche-B (about 0.30 MBq/100 ml) was administered via the caudal vein of each mouse. […] After that, the weights of blood, plasma, urine, tumor, and normal tissues/organs were measured, and the radioactivity thereof was then measured using a γ counter. The amounts of the ^211At-psyche-B (radioactivity) accumulated in the blood, plasma, urine, tumor, and normal tissues/organs were calculated. […] Regarding accumulation of the ^211At-psyche-B in the thyroid gland, since the weight of the thyroid gland could not be precisely measured, it was shown that the rate (% ID) of the ^211At-psyche-B accumulated in the thyroid gland in the administered ^211At-psyche-B."}, "[3]": {"tested_on": "human stomach cancer cells (MKN-45)", "assay": "Experiment 10: therapeutic effects and toxicity of Cupid-scFv antibody (24 h before)+^211At-psyche-B in MKN-45 cancer-bearing mouse models", "description": "as §1, with “six” for “seven”, “^211At-psyche-B” for “^211At-psyche-BR”, “of” for “of 5.55 MBq,”\nIn the present experiment, a 5.55 MBq administration group was not established. To a control group, a solvent for the ^211At-psyche-B was administered (solvent group). A group to which only cupid was administered was defined as a Cupid group. The mice's general states were observed and recorded immediately after administration of the ^211At-psyche-B and at 3 hours after the administration. Moreover, until Day 14, after administration of the ^211At-psyche-B, observation of the general states and the measurement of the body weight was carried out every day. After Day 14 of the administration of the […], observation of the general states and the measurement of the body weight was carried out every other day. The tumor size was measured every other day after the treatment with the ^211At-psyche-B. On Day 36, after the treatment with the ^211At-psyche-B, observation of the general states, the measurement of the body weight, and the measurement of the tumor size were carried out, and the mice were then euthanized by collecting whole blood from the heart of each mouse under isoflurane anesthesia. Tumor tissues and major tissues/organs were excised from the mice, weighed, and immobilized with formalin."}, "[4]": {"conditions": "1.85, 1.11 and 0.37 MBq, after Day 10"}},
  "data": [
    {"smiles": "N=C1N[C@H]2[C@H](CS[C@H]2CCCCNC(=O)CCCCCC(=O)Nc2cc(NC(=O)CCCCCC(=O)NCCCC[C@@H]3SC[C@@H]4NC(=N)N[C@@H]43)cc(C(=O)NCCOCCOCCNC(=O)c3cccc([211At])c3)c2)N1", "note": "[^211At-psyche-BR]", "values": [
      {"measurement": "general states and body weight changes", "setting": "[1]; 0.37 MBq", "value": "almost the same levels as in the control group"},
      {"measurement": "tumor growth compared with the control group", "setting": "[1]; 0.37 MBq, until Day 10", "value": "tumor growth was suppressed"},
      {"measurement": "general states and body weight changes", "setting": "[1]; 1.11 MBq", "value": "almost the same levels as in the control group"},
      {"measurement": "tumor growth compared with the control group", "setting": "[1]; 1.11 MBq, until Day 10", "value": "tumor growth was suppressed"},
      {"measurement": "tumor growth compared with the control group", "setting": "[1]; [4]", "value": "the tumor growth was suppressed in an amount-dependent manner"},
      {"measurement": "tumor growth compared with the control group", "setting": "[1]; 1.85 MBq, until Day 10", "value": "tumor growth was suppressed"},
      {"measurement": "general states and body weight", "setting": "[1]; 3.70 MBq", "value": "general states and body weight reduction became severe"},
      {"measurement": "general states and body weight", "setting": "[1]; 5.55 MBq", "value": "general states and body weight reduction became severe"}
    ]},
    {"smiles": "N=C1N[C@H]2[C@H](CS[C@H]2CCCCC(=O)NCCCCCC(=O)Nc2cc(NC(=O)CCCCCNC(=O)CCCC[C@@H]3SC[C@@H]4NC(=N)N[C@@H]43)cc(C(=O)NCCOCCOCCNC(=O)c3cccc([211At])c3)c2)N1", "note": "[^211At-psyche-B]", "values": [
      {"measurement": "Accumulation in the tumor", "setting": "[2]", "value": "25.8±1.5", "unit": "% ID/g"},
      {"measurement": "body weight reduction", "setting": "[3]; 0.37 MBq, before Day 10", "value": "body weight reduction was lower than that in the 1.11 MBq"},
      {"measurement": "body weight reduction", "setting": "[3]; 0.37 MBq, on and after Day 10", "value": "the body weight reduction was the same as in the 1.11 MBq"},
      {"measurement": "tumor growth compared with the control group", "setting": "[3]; 0.37 MBq, until Day 10", "value": "tumor growth was suppressed"},
      {"measurement": "body weight recovery", "setting": "[3]; 1.11 MBq, after Day 5", "value": "the body weight was not recovered to the same level as the control groups"},
      {"measurement": "body weight", "setting": "[3]; 1.11 MBq, until Day 5", "value": "the body weight was slightly reduced"},
      {"measurement": "tumor growth compared with the control group", "setting": "[3]; 1.11 MBq, until Day 10", "value": "tumor growth was suppressed"},
      {"measurement": "tumor growth compared with the control group", "setting": "[3]; [4]", "value": "the tumor growth was suppressed in an amount-dependent manner"},
      {"measurement": "general states and body weight", "setting": "[3]; 1.85 MBq, Day 5", "value": "general states and body weight reduction became significantly severe"},
      {"measurement": "mortality", "setting": "[3]; 1.85 MBq, Day 10", "value": "one mouse died"},
      {"measurement": "recovery of general states", "setting": "[3]; 1.85 MBq, Day 26", "value": "the mice were completely recovered"},
      {"measurement": "skin findings", "setting": "[3]; 1.85 MBq, on and after Day 6 until Day 12", "value": "red spots were dispersed on the skin"},
      {"measurement": "tumor growth compared with the control group", "setting": "[3]; 1.85 MBq, until Day 10", "value": "tumor growth was suppressed"},
      {"measurement": "general states and body weight", "setting": "[3]; 3.70 MBq, Day 5, urgent euthanasia", "value": "general states and body weight reduction became severe"}
    ]}
  ]
}
